Reference: PubChem BioAssay AID1259411 (Chemical Carcinogenesis Research Information System (CCRIS), 2018)
Calls of active or inactive are those of the source. No rule for the calls is given here.

Tested on: rodent carcinogenicity bioassays, tumor incidence
Assay: CCRIS carcinogenicity studies
Outline: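 NCI-built, expert-reviewed records of carcinogenicity and related test outcomes (mutagenicity, tumor promotion/inhibition) compiled from published and report sources, historical span 1985-2011, not updated.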

## NNc1nc(-c2ccc([N+](=O)[O-])o2)cs1
Species: RAT, Strain/Sex: SPRAGUE-DAWLEY/FEMALE, Route: ORAL, Dose: 0, 0.089% OF DIET FOR 46 WK FOLLOWED BY CONTROL DIET FOR 20 WK FOR A TOTAL DOSE OF 0, 4.2 G (STUDY DURATION: 66 WK), Dose: 0, 0.089% OF DIET FOR 46 WK FOLLOWED BY CONTROL DIET FOR 20 WK FOR A TOTAL DOSE OF 0, 4.2 G (STUDY DURATION: 66 WK), Tumor Site: Type of Lesion: MAMMARY GLAND: ADENOCARCINOMA, MAMMARY GLAND: ADENOFIBROMA OR FIBROADENOMA
  carcinogen call: active; positive

## [Ni+2].[OH-].[OH-]
Species: RAT, Strain/Sex: WISTAR, Route: INTRAMUSCULAR IMPLANT, Tumor Site: Type of Lesion: IMPLANT SITE
  carcinogen call: active; positive

## CCCCCCN(C)N=O
Species: HAMSTER, Strain/Sex: SYRIAN/FEMALE, Route: GAVAGE, Dose: 0, 6.2 MG/KG 1/WK FOR 50 WK (TOTAL DOSE: 0; 2.1 MMOL) (STUDY DURATION: LIFETIME), Dose: 0, 6.2 MG/KG 1/WK FOR 50 WK (TOTAL DOSE: 0; 2.1 MMOL) (STUDY DURATION: LIFETIME), Tumor Site: Type of Lesion: LIVER: CHOLANGIOMA, LUNG: ALVEOLAR/BRONCHIAL CARCINOMA, ALVEOLAR/BRONCHIAL ADENOMA, URINARY BLADDER: TRANSITIONAL CELL C, Tumor Site: Type of Lesion: LIVER: CHOLANGIOMA, LUNG: ALVEOLAR/BRONCHIAL CARCINOMA, ALVEOLAR/BRONCHIAL ADENOMA, URINARY BLADDER: TRANSITIONAL CELL C
  carcinogen call: active; positive
Species: HAMSTER, Strain/Sex: SYRIAN/MALE, Route: GAVAGE, Dose: 0, 6.2 MG/KG 1/WK FOR 50 WK (TOTAL DOSE: 0; 2.1 MMOL) (STUDY DURATION: LIFETIME), Dose: 0, 6.2 MG/KG 1/WK FOR 50 WK (TOTAL DOSE: 0; 2.1 MMOL) (STUDY DURATION: LIFETIME), Tumor Site: Type of Lesion: LIVER: HEPATOCELLULAR ADENOMA, CHOLANGIOMA, HEMANGIOSARCOMA, LUNG: ALVEOLAR/ BRONCHIAL ADENOMA, NASAL MUCOSA: CARCINOMA,, Tumor Site: Type of Lesion: LIVER: HEPATOCELLULAR ADENOMA, CHOLANGIOMA, HEMANGIOSARCOMA, LUNG: ALVEOLAR/ BRONCHIAL ADENOMA, NASAL MUCOSA: CARCINOMA
  carcinogen call: active; positive
Species: RAT, Strain/Sex: F344/FEMALE, Route: INTRAVESICULAR, Dose: 0, 3.75 MG IN 0.4 ML ETHANOL: DEIONIZED WATER (1:3) 2/WK FOR 30 WK (TOTAL DOSE 1.6 MMOL) (STUDY DURATION: LIFESPAN), Tumor Site: Type of Lesion: BLADDER: TUMOR, LUNG: SQUAMOUS CELL CARCINOMA, UTERUS: TUMOR, Tumor Site: Type of Lesion: BLADDER: TUMOR, LUNG: SQUAMOUS CELL CARCINOMA, UTERUS: TUMOR
  carcinogen call: active; positive

## CBr
Species: DOG, Strain/Sex: BEAGLE/FEMALE, Route: ORAL, Dose: 0, 0.07, 0.12, 0.27 MG/KG/D IN DIET FOR 1 YR (STUDY DURATION: 1 YR), Dose: 0, 0.07, 0.12, 0.27 MG/KG/D IN DIET FOR 1 YR (STUDY DURATION: 1 YR)
  carcinogen call: inactive; negative
Species: DOG, Strain/Sex: BEAGLE/MALE, Route: ORAL, Dose: 0, 0.06, 0.13, 0.28 MG/KG/D IN DIET FOR 1 YR (STUDY DURATION: 1 YR), Dose: 0, 0.06, 0.13, 0.28 MG/KG/D IN DIET FOR 1 YR (STUDY DURATION: 1 YR)
  carcinogen call: inactive; negative
Species: MOUSE, Strain/Sex: B6C3F1/FEMALE, Route: INHALATION, Dose: 0, 10, 33, 100 PPM 6 HR/D 5 D/WK FOR UP TO 103 WK, DOSING IN 100 PPM GROUP DISCONTINUED AFTER 20 WK (STUDY DURATION: 104, Dose: 0, 10, 33, 100 PPM 6 HR/D 5 D/WK FOR UP TO 103 WK, DOSING IN 100 PPM GROUP DISCONTINUED AFTER 20 WK (STUDY DURATION: 104
  carcinogen call: inactive; negative
Species: MOUSE, Strain/Sex: B6C3F1/MALE, Route: INHALATION, Dose: 0, 10, 33, 100 PPM 6 HR/D 5 D/WK FOR UP TO 103 WK, DOSING IN 100 PPM GROUP DISCONTINUED AFTER 20 WK (STUDY DURATION: 104, Dose: 0, 10, 33, 100 PPM 6 HR/D 5 D/WK FOR UP TO 103 WK, DOSING IN 100 PPM GROUP DISCONTINUED AFTER 20 WK (STUDY DURATION: 104
  carcinogen call: inactive; negative
Species: MOUSE, Strain/Sex: BDF1/FEMALE, Route: INHALATION, Dose: 0, 4, 16, 64 PPM 6 HR/D 5 D/WK FOR 104 WK (STUDY DURATION: 105 WK), Dose: 0, 4, 16, 64 PPM 6 HR/D 5 D/WK FOR 104 WK (STUDY DURATION: 105 WK)
  carcinogen call: inactive; negative
Species: MOUSE, Strain/Sex: BDF1/MALE, Route: INHALATION, Dose: 0, 4, 16, 64 PPM 6 HR/D 5 D/WK FOR 104 WK (STUDY DURATION: 105 WK), Dose: 0, 4, 16, 64 PPM 6 HR/D 5 D/WK FOR 104 WK (STUDY DURATION: 105 WK)
  carcinogen call: inactive; negative
Species: RAT, Strain/Sex: F344/FEMALE, Route: INHALATION, Dose: 0, 4, 20, 100 PPM 6 HR/D 5 D/WK FOR 104 WK (STUDY DURATION: 105 WK), Dose: 0, 4, 20, 100 PPM 6 HR/D 5 D/WK FOR 104 WK (STUDY DURATION: 105 WK)
  carcinogen call: inactive; negative
Species: RAT, Strain/Sex: F344/FEMALE, Route: ORAL
  carcinogen call: inactive; negative
Species: RAT, Strain/Sex: F344/MALE, Route: INHALATION, Dose: 0, 4, 20, 100 PPM 6 HR/D 5 D/WK FOR 104 WK (STUDY DURATION: 105 WK), Dose: 0, 4, 20, 100 PPM 6 HR/D 5 D/WK FOR 104 WK (STUDY DURATION: 105 WK)
  carcinogen call: inactive; negative
Species: RAT, Strain/Sex: F344/MALE, Route: ORAL
  carcinogen call: inactive; negative
Species: RAT, Strain/Sex: WISTAR/FEMALE, Route: GAVAGE, Dose: 0.4, 2, 10, 50 MG/KG IN ARACHIS OIL 5/WK FOR 13 WK, Dose: 0.4, 2, 10, 50 MG/KG IN ARACHIS OIL 5/WK FOR 13 WK, Tumor Site: Type of Lesion: FORESTOMACH: CARCINOMA
  carcinogen call: active; positive
Species: RAT, Strain/Sex: WISTAR/FEMALE, Route: INHALATION, Dose: 0, 3, 30, 90 PPM 6 HR/D 5 D/WK FOR 29 MO (STUDY DURATION: 29 MO), Dose: 0, 3, 30, 90 PPM 6 HR/D 5 D/WK FOR 29 MO (STUDY DURATION: 29 MO)
  carcinogen call: inactive; negative
Species: RAT, Strain/Sex: WISTAR/MALE, Route: GAVAGE, Dose: 0.4, 2, 10, 50 MG/KG IN ARACHIS OIL 5/WK FOR 13 WK, Dose: 0.4, 2, 10, 50 MG/KG IN ARACHIS OIL 5/WK FOR 13 WK, Tumor Site: Type of Lesion: FORESTOMACH: PAPILLOMA, CARCINOMA
  carcinogen call: active; positive
Species: RAT, Strain/Sex: WISTAR/MALE, Route: INHALATION, Dose: 0, 3, 30, 90 PPM 6 HR/D 5 D/WK FOR 29 MO (STUDY DURATION: 29 MO), Dose: 0, 3, 30, 90 PPM 6 HR/D 5 D/WK FOR 29 MO (STUDY DURATION: 29 MO)
  carcinogen call: inactive; negative
